Data published in patent US20260355189A1, “SMALL MOLECULE INHIBITORS OF NEUTROPHIL EXOCYTOSIS AND INFLAMMATION” (THE SCRIPPS RESEARCH INSTITUTE, priority 2022, published 2026).

Legend:
mouse neutrophils = experiment: Isoluminol-dependent chemiluminescence assay of MPO secretion in purified mouse neutrophils; format: cell-based; conditions: 10 μM inhibitor, PMA stimulated, FIG. 3B
Source text: FIGS. 3A-C illustrate the effect of Inhibitors C1, C2, C4, C5, and C6 and comparator Nexinhib 20 (shown as “C20”) on MPO secretion of mouse neutrophils. FIG. 3A is a schematic representation of a cell-based secondary screening assay used to analyze the potency the potency of Rab27a-JFC1 inhibitors for their ability to decrease exocytosis of intact human neutrophil. This cell-based assay measures the secretion of myeloperoxidase (MPO) by human neutrophils using cell-impermeant isoluminol-dependent chemiluminescence in the absence of exogenous peroxidases.
(§1) Human neutrophils were isolated from normal donor's blood by Ficoll density centrifugation, as described previously (23). Murine bone marrow-derived neutrophils were isolated using a Percoll gradient fractionation system as described (24). A three-layer Percoll gradient was used (52%, 64%, and 72%), and neutrophils were isolated from the 64-72% interface, washed, and used in the assays.
Extracellular MPO-dependent reactive oxygen species (ROS) production was measured using the chemiluminescence reactions mediated by isoluminol (25). To this end, 3×10^5 neutrophils were resuspended in serum-free RPMI 1640 medium in the presence of cell-impermeant isoluminol, and reactions were carried out in the absence of exogenous peroxidase. Neutrophils were incubated in the presence of compounds or DMSO (0.5%) pin-tooled into 384-well plates in a […]. Control experiments were run in parallel in the presence of [COMPOUND LEFT OUT] (0.5 mM) to inhibit endogenous myeloperoxidase. After addition of stimuli (phorbol 12-myristate 13-acetate, “PMA”) or vehicle using liquid handling devices (BioRaptor FRD, Beckman Coulter), MPO-dependent chemiluminescence was continuously monitored for 30 min at 37 °C using a 2104 EnVision multilabel plate reader. For secretion assays, 0.5×10^6 neutrophils were incubated in RPMI 1640 medium in polystyrene 96-well plates in the presence of Inhibitors or dimethyl sulfoxide (DMSO) control for 1 hour and stimulated for the indicated times at 37 °C with PMA (0.1 μg/ml), GM-CSF (10 ng/ml), and fMLP (1 μM) or DMSO control. The cells were spun down, and supernatants were transferred to clean plates using plate filters to avoid contamination from cellular secretory proteins. MPO was measured by ELISA (R&D Systems).
Results: FIG. 3B is a graph showing the effect of Inhibitors C1, C2, C4, C5, and C6 on secreted MPO-dependent reaction using the isoluminol-dependent chemiluminescence assay in highly purified mouse neutrophils. On the graph of FIG. 3B, the pre-fix “NS” means “no stimuli” where the cells were treated with 10 μM C1, C2, C4, C5, C6, and C20 alone without any exocytosis stimuli. The pre-fix “PMA” means the cells were stimulated with PMA to secrete MPO and were treated with 10 μM of the designated Inhibitor. […] Mean % inhibition: C1, 76.74; C2, 59.85; C4, 70.9; C6, 62.4; C20, 99.22.

[1] = tested on: Nlrp3^A350V cre ERT2 mice; experiment: Nlrp3 A350V cre ERT2 mouse model of cryopyrin-associated periodic syndrome (CAPS); format: in vivo; conditions: 30 mg/Kg i.p.; for Number of leukocytes and leukocyte subtypes: 7 or 13 days, FIG. 9B; for Activation of circulating neutrophils (CD63 upregulation): FIG. 9D; for Neutrophilic infiltration into the kidney (total MMP9 and MPO levels): tissues day 13, FIG. 9F
Description: […] cre ERT2 and control mice were injected i.p. with 50 mg/kg tamoxifen followed by C6 (30 mg/Kg) or vehicle as described. B) Total leukocytes numbers and subtypes were not affected. C) Animals suffer weight loss with disease progression. D) The activation of circulating neutrophils is attenuated by C6. E, The percentage of immature (pro-inflammatory, Ly6G-) neutrophils in circulation (blood) in Nlrp3^A350V is attenuated by treatment with C6 (4.29%) as compared to vehicle (11.0%). […] F, The protection was specific for kidneys.
In this model, disease is caused by the Nlrp3^A350V mutations. The Nlrp3^A350V inducible mouse model (MWS CreT) is homologous to humans suffering from CAPS with the Muckle-Wells A352V mutation in the NLRP3 gene. The tamoxifen inducible Nrp3^A350V cre ERT2 and control animals were injected (i.p.) with 50 mg/kg tamoxifen free base to induce disease (J Immunol 189, 2707-2711, doi:10.4049/jimmunol.1101737 (2012)). The mice (6-12 weeks old) had access to food and water ad libitum. All animal studies were performed in compliance with the U.S. Department of Health and Human Services Guide for the Care and Use of Laboratory Animals and according to NIH and institutional guidelines. All animal protocols and procedures were approved by the University of California San Diego Institutional Animal Care and Use Committees (IACUC). Mice were treated with the neutrophil specific inhibitor NEIa-C6 or vehicle (5% DMSO in PBS). In this model, NLRP3^A350V disease develops progressively in 15 days after first induction with tamoxifen. Between day 0 and day 5 mice were injected (i.p) every other day with tamoxifen followed by NEIa-C6 (30 mg/Kg) or vehicle. Next, administration of NEIa-C6 or vehicle continued until day 13, in the absence of tamoxifen. Blood samples were obtained at day 7 and blood and tissues harvested at day 13. […] The effect was specific for kidneys as lung and liver infiltration was unaffected (FIG. 9G).

[2] = tested on: human neutrophils (azurophilic granule marker CD63); experiment: Flow cytometry of azurophilic granule mobilization (CD63) in human neutrophils; format: cell-based; conditions: Homo sapiens, Neutrophil, 1 hour, GM-CSF + fMLP, N=15 donors, FIG. 4, read-out: Mean % inhibition of CD63 up-regulation
Source text: as §1
(§2) Method: The up-regulation of granule membrane-associated neutrophil markers at the plasma membrane was analyzed by flow cytometry. In these studies, flow cytometry analysis was performed by resuspension of 1×10^6 human neutrophils in phenol red-free RPMI 1640 medium, treated with a 10 μM solution of Inhibitors C1, C2, C4, C5, and C6 and Nexinhib 20 (C20) or DMSO control for 1 hour, and stimulated with physiological agonists GM-CSF (10 ng/ml) for 30 min followed by the addition of fMLP (1 μM) to induce degranulation or left untreated at 37 °C (non-stimulated, NS). The reactions were stopped by transferring the samples to ice and immediately spinning down the cells to initiate blocking and staining. To analyze the plasma membrane expression of plasma membrane markers, the cells were blocked in ice-cold PBS containing 1% BSA and stained with phycoerythrin (PE)-, FITC-, or Alexa647-conjugated anti-human CD63, CD66b, MMP9, and CD11b antibodies that detect extracellular epitopes of these markers. The cells were then washed and fixed in 1% paraformaldehyde in PBS. Samples were analyzed using a NovoCyte flow cytometer, and the data were processed using FlowJo software.

[3] = tested on: human neutrophils (specific granule marker CD66b); experiment: Flow cytometry of specific granule exocytosis (CD66b) in human neutrophils; format: cell-based; conditions: 1 hour, GM-CSF + fMLP
Source text: as §1, §2

Number of leukocytes and leukocyte subtypes ([1]; listed as C6): not affected
SMILES: CCN(CC)CCNC(=O)/C(=C/c1cccc([N+](=O)[O-])c1)n1cncn1 [154 (C6)]
Inhibition of exocytosis vs DMSO control (mouse neutrophils): significant inhibition of exocytosis | inhibition at 10 µM (mouse neutrophils; Mus musculus, Neutrophil): 62.4% | Number of leukocytes and leukocyte subtypes ([1]; listed as NEIa-C6): did not affect the number of any leukocyte subtype | Neutrophil mediated inflammation in vivo ([1]; FIG. 9): inhibits neutrophil mediated inflammation in vivo | Activation of circulating neutrophils (CD63 upregulation) ([1]; listed as C6): attenuated | Activation of circulating neutrophils (CD63 upregulation) ([1]; listed as NEIa-C6): decreased neutrophil activation in vivo | Lung and liver neutrophilic infiltration ([1]; FIG. 9G): unaffected | Neutrophilic infiltration into the kidney (total MMP9 and MPO levels) ([1]; listed as C6): significantly decreased | Neutrophilic infiltration into the kidney (total MMP9 and MPO levels) ([1]; listed as NEIa-C6): significantly protected kidneys from neutrophilic infiltration | Percentage of immature (pro-inflammatory, Ly6G-) neutrophils in blood ([1]; vehicle 11.0%, FIG. 9E): 4.29% | Weight loss ([1]; vs vehicle, FIG. 9C): partially protected from weight loss | Number of pro-inflammatory immature neutrophils in blood ([1]; vs vehicle, FIG. 9E): decreased the number of pro-inflammatory immature neutrophils in blood | inhibition at 10 µM [2]: 58.1% | Inhibition of CD66b up-regulation ([3]; 10 μM, relative to DMSO, FIG. 5): reduced the up-regulation of CD66b | inhibition at 10 µM ([3]; Homo sapiens, Neutrophil, N=12 donors, FIG. 5, read-out: % inhibition of CD66b up-regulation): 42.3%
